Source: PubChem BioAssay AID328 (DTP/NCI, 2004)
“And” between values parts separate entries of the source, which are not always exact repeats. Equal values may be shown once. Toxic doses and inconclusive results are not listed. Starred links: 1 amine or outer side, 2 acyl side, 3 side chain; linkers in the order of their positions; H or OH if unused. Positions of bridges follow the written chain, without caps; N, C: chain ends. Non-standard residues stand in square brackets, D forms with d. Residues, ends and D or L forms follow the SMILES beside them. Chains are numbered I, II in the order given. Actinocin(9to1) = Cc1c2oc3c(C)ccc(C(=O)[*:1])c3nc-2c(C(=O)[*:2])c(N)c1=O; NMeV = CN[CH](C(=O)O)C(C)C; Aze = O=C(O)[CH]1CCN1; Sar = CNCC(=O)O

Test system: BDF1 mice, P388 leukemia ip, median survival T/C
Assay: NCI In Vivo Anticancer Drug Screen. Data for tumor model P388 Leukemia (intraperitoneal) in B6D2F1 (BDF1) mice
Conditions: endpoint: median survival time, higher = longer survival
In short: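 T/C = treated-group survival ÷ vehicle-control survival; tumour transplanted into mice before dosing.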

[1] = dose: 50.0 mg/kg/injection, schedule: Q01DX009 (ip), vehicle: saline with Tween-80
[2] = dose: 200.0 mg/kg/injection, schedule: Q01DX009 (ip), vehicle: saline with Tween-80
[3] = dose: 100.0 mg/kg/injection, schedule: Q04DX003 (ip), vehicle: Klucel (hydroxypropylcellulose) (HPC)
[4] = dose: 200.0 mg/kg/injection, schedule: Q04DX003 (ip), vehicle: Klucel (hydroxypropylcellulose) (HPC)
[5] = dose: 100.0 mg/kg/injection, schedule: Q04DX003 (ip), vehicle: saline with Tween-80
[6] = dose: 200.0 mg/kg/injection, schedule: Q04DX003 (ip), vehicle: saline with Tween-80
[7] = dose: 100.0 mg/kg/injection, schedule: Q01DX009 (ip), vehicle: saline with Tween-80
[8] = dose: 50.0 mg/kg/injection, schedule: Q01DX005 (ip), vehicle: saline with Tween-80
[9] = dose: 100.0 mg/kg/injection, schedule: Q01DX005 (ip), vehicle: saline with Tween-80
[10] = dose: 50.0 mg/kg/injection, schedule: Q04DX003 (ip), vehicle: Klucel (hydroxypropylcellulose) (HPC)
[11] = dose: 50.0 mg/kg/injection, schedule: Q01DX009 (ip), vehicle: Klucel (hydroxypropylcellulose) (HPC)

In the case of `Cc1cccc(-n2c(CC#N)n[nH]c2=S)c1`, the T/C [1] is reported as 96 % of control and the T/C [2] is reported as 100 % of control.
With `CCC(c1ccc2cc(OC)ccc2c1)C(CC(=O)O)C(=O)OC` (configuration not stated) the T/C [3] was 87 % of control, the T/C [4] was 91 % of control and the T/C (dose: 400.0 mg/kg/injection, schedule: Q04DX003 (ip), vehicle: Klucel (hydroxypropylcellulose) (HPC)) was 91 % of control.
In the case of `Oc1ccc(C2N(c3ccccc3)CCN2c2ccccc2)cc1`, the T/C [5] is reported as 110 % of control and the T/C [6] is reported as 86 % of control.
With `CC1CN1c1nc(N2CC2C)nc(N2CC2C)n1` (configuration not stated) the T/C (dose: 3.0 mg/kg/injection, schedule: Q01DX009 (ip), vehicle: saline) was 104 % of control, the T/C (dose: 3.0 mg/kg/injection, schedule: Q04DX003 (ip), vehicle: saline) was 109 % of control and the T/C (dose: 6.0 mg/kg/injection, schedule: Q01DX009 (ip), vehicle: saline) was 112 % of control. For the same compound, the T/C (dose: 6.0 mg/kg/injection, schedule: Q04DX003 (ip), vehicle: saline) was 109 % of control, the T/C (dose: 12.0 mg/kg/injection, schedule: Q04DX003 (ip), vehicle: saline) was 114 % of control and the T/C (dose: 12.5 mg/kg/injection, schedule: Q04DX003 (ip), vehicle: saline) was 120 % of control.
In the case of `O=C(O)CCN1C(=O)c2ccccc2C1=O`, the T/C [7] is reported as 90 % of control and the T/C [2] is reported as 100 % of control.
`CCN(CC)c1ccc(/C=C/c2ccnc3ccccc23)cc1` was tested, and the T/C (dose: 1.56 mg/kg/injection, schedule: Q01DX009 (ip), vehicle: saline with Tween-80) was 95 % of control, the T/C (dose: 3.13 mg/kg/injection, schedule: Q01DX009 (ip), vehicle: saline with Tween-80) was 105 % of control and the T/C (dose: 6.25 mg/kg/injection, schedule: Q01DX009 (ip), vehicle: saline with Tween-80) was 90 % of control.
`Cc1cc(Sc2ccc(Cl)cc2)nc(Sc2ccc(Cl)cc2)c1C#N` was tested, and the T/C [8] was 94 % of control, the T/C [9] was 88 % of control and the T/C (dose: 200.0 mg/kg/injection, schedule: Q01DX005 (ip), vehicle: saline with Tween-80) was 91 % of control.
For `O=C(CN1CCOCC1)Nc1nc(-c2ccc(Cl)cc2)cs1`, the T/C [8] was 110 % of control and the T/C [9] was 91 % of control.
`CCCCCCCCCCCCCCCCOc1ccc(C(C)(C)C)cc1` was tested, and the T/C (dose: 37.5 mg/kg/injection, schedule: Q01DX001 (ip), vehicle: saline sonified) was 100 % of control, the T/C (dose: 75.0 mg/kg/injection, schedule: Q01DX001 (ip), vehicle: saline sonified) was 100 % of control and the T/C (dose: 150.0 mg/kg/injection, schedule: Q01DX001 (ip), vehicle: saline sonified) was 100 % of control.
`NC(=O)c1ccc(C(F)(F)F)cc1O` was tested, and the T/C [3] was 90 % of control and the T/C [4] was 90 % of control.
In the case of `C[P+](Cc1ccc([N+](=O)[O-])cc1)(c1ccccc1)c1ccccc1`, the T/C (dose: 1.56 mg/kg/injection, schedule: Q01DX009 (ip), vehicle: Klucel (hydroxypropylcellulose) (HPC)) is reported as 96 % of control, the T/C (dose: 3.12 mg/kg/injection, schedule: Q01DX009 (ip), vehicle: Klucel (hydroxypropylcellulose) (HPC)) is reported as 88 % of control and the T/C (dose: 12.5 mg/kg/injection, schedule: Q01DX009 (ip), vehicle: Klucel (hydroxypropylcellulose) (HPC)) is reported as 89 % of control. For the same compound, the T/C (dose: 12.5 mg/kg/injection, schedule: Q04DX003 (ip), vehicle: Klucel (hydroxypropylcellulose) (HPC)) was 100 % of control and the T/C [10] was 104 % of control.
For `CSc1nc2n(C)cc(C)cc-2c(=O)n1`, the T/C (dose: 100.0 mg/kg/injection, schedule: Q01DX001 (ip), vehicle: suspension in saline) was 90 % of control.
With `CC[n+]1ccc(Cc2ccc([N+](=O)[O-])cc2)cc1` the T/C (dose: 25.0 mg/kg/injection, schedule: Q01DX009 (ip), vehicle: Klucel (hydroxypropylcellulose) (HPC)) was 104 % of control and 119 % of control, the T/C (dose: 25.0 mg/kg/injection, schedule: Q04DX003 (ip), vehicle: Klucel (hydroxypropylcellulose) (HPC)) was 100 % of control and the T/C [11] was 109 % of control. For the same compound, the T/C [10] was 100 % of control and the T/C [3] was 100 % of control.
In the case of `Cc1c(C#N)c2n(c1C)CCCC(=O)N2`, the T/C (dose: 25.0 mg/kg/injection, schedule: Q01DX009 (ip), vehicle: saline with Tween-80) is reported as 95 % of control, the T/C [1] is reported as 109 % of control and the T/C (dose: 50.0 mg/kg/injection, schedule: Q04DX003 (ip), vehicle: saline with Tween-80) is reported as 91 % of control. The T/C [7] was 104 % of control, the T/C [5] was 91 % of control and the T/C [2] was 100 % of control. The T/C [6] was 87 % of control and the T/C (dose: 400.0 mg/kg/injection, schedule: Q04DX003 (ip), vehicle: saline with Tween-80) was 91 % of control.
In the case of `Cc1c2oc3c(C)ccc(C(=O)NC4C(=O)NC(C(C)C)C(=O)N5CCC5C(=O)N(C)CC(=O)N(C)C(C(C)C)C(=O)OC4C)c3nc-2c(C(=O)NC2C(=O)NC(C(C)C)C(=O)N3CCC3C(=O)N(C)CC(=O)N(C)C(C(C)C)C(=O)OC2C)c(N)c1=O` (configuration not stated) (I: TV[Aze][Sar][NMeV] / II: TV[Aze][Sar][NMeV]; ester I:1-I:C, II:1-II:C; linker I:N-II:N via Actinocin(9to1); configuration not given here), the T/C (dose: 0.26 mg/kg/injection, schedule: Q04DX003 (ip), vehicle: saline) is reported as 226 % of control, the T/C (dose: 0.4 mg/kg/injection, schedule: Q04DX003 (ip), vehicle: saline) is reported as 180 % of control and the T/C (dose: 0.6 mg/kg/injection, schedule: Q04DX003 (ip), vehicle: saline) is reported as 319 % of control. The T/C (dose: 12.5 micrograms/kg/injection, schedule: Q01DX009 (ip), vehicle: saline + alcohol) was 190 % of control, the T/C (dose: 25.0 micrograms/kg/injection, schedule: Q01DX009 (ip), vehicle: saline + alcohol) was 197 % of control and the T/C (dose: 50.0 micrograms/kg/injection, schedule: Q01DX009 (ip), vehicle: saline + alcohol) was 239 % of control. The T/C (dose: 75.0 micrograms/kg/injection, schedule: Q01DX009 (ip), vehicle: saline + alcohol) was 237 % of control, the T/C (dose: 100.0 micrograms/kg/injection, schedule: Q01DX009 (ip), vehicle: saline + alcohol) was 260 % of control and the T/C (dose: 112.5 micrograms/kg/injection, schedule: Q01DX009 (ip), vehicle: saline + alcohol) was 274 % of control. For the same compound, the T/C (dose: 150.0 micrograms/kg/injection, schedule: Q01DX009 (ip), vehicle: saline + alcohol) was 274 % of control, the T/C (dose: 150.0 micrograms/kg/injection, schedule: Q04DX003 (ip), vehicle: saline + alcohol) was 218 % of control and the T/C (dose: 200.0 micrograms/kg/injection, schedule: Q01DX009 (ip), vehicle: saline + alcohol) was 166 % of control. For the same compound, the T/C (dose: 216.0 micrograms/kg/injection, schedule: Q04DX003 (ip), vehicle: saline + alcohol) was 207 % of control, the T/C (dose: 225.0 micrograms/kg/injection, schedule: Q01DX009 (ip), vehicle: saline + alcohol) was 108 % of control and the T/C (dose: 225.0 micrograms/kg/injection, schedule: Q04DX003 (ip), vehicle: saline + alcohol) was 212 % of control. The T/C (dose: 300.0 micrograms/kg/injection, schedule: Q01DX009 (ip), vehicle: saline + alcohol) was 113 % of control, the T/C (dose: 360.0 micrograms/kg/injection, schedule: Q04DX003 (ip), vehicle: saline + alcohol) was 225 % of control and the T/C (dose: 450.0 micrograms/kg/injection, schedule: Q04DX003 (ip), vehicle: saline + alcohol) was 238 % of control and 336 % of control. The T/C (dose: 900.0 micrograms/kg/injection, schedule: Q04DX003 (ip), vehicle: saline + alcohol) was 88 % of control and 117 % of control, the T/C (dose: 1000.0 micrograms/kg/injection, schedule: Q04DX003 (ip), vehicle: saline + alcohol) was 97 % of control and the T/C (dose: 1200.0 micrograms/kg/injection, schedule: Q04DX003 (ip), vehicle: saline + alcohol) was 102 % of control.
In the case of `COc1ccc(CN(C(C)=O)c2cc(C)c([N+](=O)[O-])cc2OC)cc1OC`, the T/C (dose: 25.0 mg/kg/injection, schedule: Q01DX009 (ip), vehicle: saline) is reported as 103 % of control, the T/C (dose: 25.0 mg/kg/injection, schedule: Q04DX003 (ip), vehicle: saline) is reported as 87 % of control and 107 % of control and the T/C (dose: 50.0 mg/kg/injection, schedule: Q01DX009 (ip), vehicle: saline) is reported as 87 % of control. For the same compound, the T/C (dose: 50.0 mg/kg/injection, schedule: Q04DX003 (ip), vehicle: saline) was 88 % of control and 107 % of control, the T/C (dose: 100.0 mg/kg/injection, schedule: Q01DX009 (ip), vehicle: saline) was 111 % of control and the T/C (dose: 150.0 mg/kg/injection, schedule: Q04DX003 (ip), vehicle: saline) was 106 % of control. For the same compound, the T/C (dose: 200.0 mg/kg/injection, schedule: Q01DX009 (ip), vehicle: saline) was 108 % of control, the T/C (dose: 200.0 mg/kg/injection, schedule: Q04DX003 (ip), vehicle: saline) was 99 % of control and 107 % of control and the T/C (dose: 300.0 mg/kg/injection, schedule: Q04DX003 (ip), vehicle: saline) was 114 % of control. For the same compound, the T/C (dose: 400.0 mg/kg/injection, schedule: Q01DX009 (ip), vehicle: saline) was 100 % of control and the T/C (dose: 400.0 mg/kg/injection, schedule: Q04DX003 (ip), vehicle: saline) was 100 % of control.
`CNC(=O)OCc1c(COC(=O)NC)c(-c2ccc(Cl)cc2)n2c1CCC2` was tested, and the T/C [11] was 96 % of control.
`Cn1c(N)c(N=Cc2ccc(Cl)cc2)c(=O)n(C)c1=O` was tested, and the T/C [5] was 92 % of control and the T/C [6] was 99 % of control.
